We go through one compound from patent US20060193931A1, “Nutritional or therapeutic composition containing the compound oleuropeine or one of the derivatives thereof” (priority 2003, published 2006).

Assay type in all cases: in vivo, rat (Wistar)
Data set [1] concerns ovariectomized female rats, suffering from inflammation (OVX inf). In words: Body weight and uterine weight in ovariectomized female rats with talc-induced inflammation (senile osteoporosis model). Particulars: OVX inf female Wistar rats. As to the method:
(§1) The experiment was conducted on 40 female rats Wistar aged 6 months, amongst which thirty were ovariectomized (OVX) and 10 pseudo-operated (SH). Animals were placed in metabolic cages enabling to separately collect the urines at a controlled temperature of 21±1° C., according to a 12 h-12 h nyctohemeral cycle. Following the surgical operation at Day0, animals were accustomed for seven days to a basic semisynthetic diet (INRA, Jouy-en-Josas, France), supplemented with 2.5% groundnut oil and 2.5% rapeseed oil and humidified to 1 ml water per gram powder. At the end of this adaptation period, the rats were separated in four homogeneous batches according to weight parameters and were fed for 72 days 22 g per day of following diets: • Batch SH/10 pseudo-operated female rats fed control diet (basic diet supplemented with 2.5% groundnut oil and 2.5% rapeseed oil), • Batch OVXinf: 10 ovariectomized female rats fed control diet, • Batch OL: 10 ovariectomized female rats fed control diet supplemented with 0.015% oleuropein. • Batch HO: 10 ovariectomized female rats fed basic diet supplemented with 5% extra-virgin olive oil.
(§2) Oil storage was kept away from light. Feed was prepared once a week and stored at +4° C.
(§3) At D55, that is 3 weeks before the end of the experiment, an inflammation was induced in each batch, except in control batch (SH). […]

Data set [2] has the same test system. In words: Inflammation markers (plasma orosomucoid, spleen weight) in ovariectomized female rats with talc-induced inflammation. To be noted: OVX inf female Wistar rats; diet for 72 days; sacrifice D80; mean ± SEM. On the procedure:
as §1, §2, §3

Data set [3] has the same test system. Briefly: Femur bone mineral density in ovariectomized female rats with talc-induced inflammation. Particulars: OVX inf female Wistar rats. As to the method:
as §1, §2
At D55, that is 3 weeks before the end of the experiment, an inflammation was induced in each batch, except in control batch (SH). Four talc subcutaneous injections (3.2 g magnesium silicate (Sigma) suspended in […] physiological saline) were administrated in 4 distinct sites of the animal back.
The day of sacrifice (D80), animals were anesthetized with a chloral intraperitoneal injection (Fluka/8% solution, 0.4 ml/100 g of live weight). Blood samples were collected at abdominal aorta for dosing orosomucoid (inflammation marker, in particular of the acute phase for humans and rats (Fournier and al. 2000), that is produced by lever and other extra-hepatic sites under the control of II1, TNFα and II6 cytokines).
Femurs were collected and removed from adjacent soft tissues, then kept in 80% ethanol for bone density determination.

The mark [4] stands for this setting: diet with 0.015% oleuropein or 5% extra-virgin olive oil for 72 days, sacrifice D80, mean ± SEM.
Setting [5] is: femur, oleuropein diet for 72 days.

Each structure is given as a SMILES string.

On to `C/C=C1/[C@H](O[C@@H]2O[C@H](CO)[C@@H](O)[C@H](O)[C@H]2O)OC=C(C(=O)OC)[C@H]1CC(=O)OCCc1ccc(O)c(O)c1` [oleuropein], for which the uterotrophic effect entry in data set [1] (diet for 72 days, judged from uterine weight) is given as “free from any uterotrophic effect”. Besides, the uterine weight in data set [1] (setting [4]) is 0.034±0.001 g uterus/100 g body weight. For the same compound, the spleen weight in data set [2] was 0.201±0.011 g spleen/100 g body weight. The “total bone mineral density (femur)” value in data set [3] (setting [4]) is reported as 0.2258±0.0028 g/cm^2. In addition, in data set [3] (setting [5]), the “bone cortical substance density” value was “increase” and the “bone trabecular substance density” value is “increase”.
